Assay results published in patent publication US12427210B2, “Compounds comprising a fibroblast activation protein ligand and use thereof” (priority 2019, dated 2025).
Read-outs that look alike come from different tables or passages of the source. Numbered stars: 1 amine (or outer) side, 2 acyl side, 3 side chain; on linkers, the order of the positions; unused ones are H or OH. Bridge positions count the residues as written; N and C are the ends. Peptide text beside a SMILES is read from it. * marks the point of attachment. X1 = O=C(O)CN1CCN(CC(=O)O)CCN(CC(=O)N2CCN(Cc3cc(C[*:1])cc(C[*:2])c3)CC2)CCN(CC(=O)O)CC1; Hexanoyl = CCCCCC(=O)*

Legend:
BZD (central) = details: 10 μM
[1] = system: Ca2+ channel (L, dihydropyridine site); details: 10 μM
[2] = system: serine protease NS3 (a.a. 3-181) from Hepatitis C virus genotype 1b
[3] = system: serine protease NS3 (a.a. 3-181) from Hepatitis C virus genotype 1b (mutant R155Q)
beta 1 (h) = beta 1 (h) (Homo sapiens, UniProt P08588); experiment: biochemical; details: read-out: % Inhibition of Specific Binding
beta 1 (h), sequence (P08588 whole entry): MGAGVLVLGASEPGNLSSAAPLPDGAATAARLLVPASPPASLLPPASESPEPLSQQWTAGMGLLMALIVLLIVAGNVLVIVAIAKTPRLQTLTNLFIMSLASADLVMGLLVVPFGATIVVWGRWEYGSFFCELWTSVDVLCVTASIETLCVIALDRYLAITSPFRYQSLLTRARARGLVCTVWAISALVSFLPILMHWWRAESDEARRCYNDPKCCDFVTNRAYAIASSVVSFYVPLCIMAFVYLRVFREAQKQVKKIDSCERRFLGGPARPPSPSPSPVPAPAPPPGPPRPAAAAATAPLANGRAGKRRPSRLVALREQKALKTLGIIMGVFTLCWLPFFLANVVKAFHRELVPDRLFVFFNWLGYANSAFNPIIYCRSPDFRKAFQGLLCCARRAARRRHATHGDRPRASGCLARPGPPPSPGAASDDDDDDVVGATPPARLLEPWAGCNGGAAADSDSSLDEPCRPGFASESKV

D2S (h) = D2S (h) (Homo sapiens, UniProt P14416); experiment: biochemical; details: read-out: % Inhibition of Specific Binding
D2S (h), sequence (P14416 1-414 isoform P14416-2): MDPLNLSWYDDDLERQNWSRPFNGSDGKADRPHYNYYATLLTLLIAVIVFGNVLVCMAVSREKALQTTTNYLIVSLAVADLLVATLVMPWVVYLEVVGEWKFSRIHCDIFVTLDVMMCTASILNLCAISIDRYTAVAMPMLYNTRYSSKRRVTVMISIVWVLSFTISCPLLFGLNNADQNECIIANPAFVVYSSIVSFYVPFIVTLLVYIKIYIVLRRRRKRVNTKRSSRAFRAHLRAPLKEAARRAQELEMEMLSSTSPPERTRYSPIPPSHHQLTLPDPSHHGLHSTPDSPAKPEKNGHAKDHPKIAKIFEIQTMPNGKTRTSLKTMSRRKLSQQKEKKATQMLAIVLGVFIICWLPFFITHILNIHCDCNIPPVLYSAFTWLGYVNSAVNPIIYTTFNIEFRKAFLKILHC

M2 (h) = M2 (h) (Homo sapiens, UniProt P08172); experiment: biochemical; details: read-out: % Inhibition of Specific Binding
delta (DOP) (h) = delta (DOP) (h) (Homo sapiens, UniProt P41143); experiment: biochemical; details: read-out: % Inhibition of Specific Binding
delta (DOP) (h), sequence (P41143 whole entry): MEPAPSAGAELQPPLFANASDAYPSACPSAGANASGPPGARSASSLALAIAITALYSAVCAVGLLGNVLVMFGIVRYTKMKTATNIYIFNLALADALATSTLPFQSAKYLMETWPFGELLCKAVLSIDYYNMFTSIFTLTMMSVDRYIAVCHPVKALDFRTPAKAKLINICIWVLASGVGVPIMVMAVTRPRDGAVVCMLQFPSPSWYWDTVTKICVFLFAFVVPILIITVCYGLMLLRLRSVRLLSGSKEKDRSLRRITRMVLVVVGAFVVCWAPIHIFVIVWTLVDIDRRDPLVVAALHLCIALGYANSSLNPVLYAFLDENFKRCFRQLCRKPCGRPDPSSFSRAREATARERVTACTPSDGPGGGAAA

mu (MOP) (h) = mu (MOP) (h) (Homo sapiens, UniProt P35372); experiment: biochemical; details: read-out: % Inhibition of Specific Binding
mu (MOP) (h), sequence (P35372 whole entry): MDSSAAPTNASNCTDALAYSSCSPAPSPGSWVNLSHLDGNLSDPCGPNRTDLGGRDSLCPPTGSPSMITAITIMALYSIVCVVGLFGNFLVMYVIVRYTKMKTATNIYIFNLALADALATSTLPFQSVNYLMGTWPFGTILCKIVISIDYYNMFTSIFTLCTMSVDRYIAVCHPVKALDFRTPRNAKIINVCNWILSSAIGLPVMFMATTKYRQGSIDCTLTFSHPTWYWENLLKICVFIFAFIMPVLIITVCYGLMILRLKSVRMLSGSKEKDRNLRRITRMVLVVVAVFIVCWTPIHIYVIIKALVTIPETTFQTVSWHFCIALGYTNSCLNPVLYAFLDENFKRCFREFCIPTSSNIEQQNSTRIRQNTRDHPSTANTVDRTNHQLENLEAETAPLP

5-HT transporter (h) = 5-HT transporter (h) (Homo sapiens, UniProt P31645); experiment: biochemical; details: read-out: % Inhibition of Specific Binding
5-HT transporter (h), sequence (P31645 whole entry): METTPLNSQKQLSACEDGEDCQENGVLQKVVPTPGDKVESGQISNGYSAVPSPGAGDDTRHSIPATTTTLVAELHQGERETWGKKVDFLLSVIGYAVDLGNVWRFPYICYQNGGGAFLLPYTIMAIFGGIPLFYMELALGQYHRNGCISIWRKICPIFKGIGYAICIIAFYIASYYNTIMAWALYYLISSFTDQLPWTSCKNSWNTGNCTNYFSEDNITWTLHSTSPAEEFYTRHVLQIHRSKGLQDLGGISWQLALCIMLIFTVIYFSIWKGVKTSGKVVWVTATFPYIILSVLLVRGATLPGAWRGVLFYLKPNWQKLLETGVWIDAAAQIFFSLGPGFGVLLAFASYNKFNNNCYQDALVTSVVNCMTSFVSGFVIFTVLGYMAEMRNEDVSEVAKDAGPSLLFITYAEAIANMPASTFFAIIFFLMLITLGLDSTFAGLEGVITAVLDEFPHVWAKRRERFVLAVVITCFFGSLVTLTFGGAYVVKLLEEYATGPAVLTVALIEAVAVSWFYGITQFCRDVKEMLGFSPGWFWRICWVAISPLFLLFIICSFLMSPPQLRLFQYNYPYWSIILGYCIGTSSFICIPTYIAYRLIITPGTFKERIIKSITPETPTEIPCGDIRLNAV

Lck kinase (h) = Lck kinase (h) (Homo sapiens, UniProt P06239); experiment: biochemical; details: read-out: % Inhibition of Specific Binding
Lck kinase (h), sequence (P06239 whole entry): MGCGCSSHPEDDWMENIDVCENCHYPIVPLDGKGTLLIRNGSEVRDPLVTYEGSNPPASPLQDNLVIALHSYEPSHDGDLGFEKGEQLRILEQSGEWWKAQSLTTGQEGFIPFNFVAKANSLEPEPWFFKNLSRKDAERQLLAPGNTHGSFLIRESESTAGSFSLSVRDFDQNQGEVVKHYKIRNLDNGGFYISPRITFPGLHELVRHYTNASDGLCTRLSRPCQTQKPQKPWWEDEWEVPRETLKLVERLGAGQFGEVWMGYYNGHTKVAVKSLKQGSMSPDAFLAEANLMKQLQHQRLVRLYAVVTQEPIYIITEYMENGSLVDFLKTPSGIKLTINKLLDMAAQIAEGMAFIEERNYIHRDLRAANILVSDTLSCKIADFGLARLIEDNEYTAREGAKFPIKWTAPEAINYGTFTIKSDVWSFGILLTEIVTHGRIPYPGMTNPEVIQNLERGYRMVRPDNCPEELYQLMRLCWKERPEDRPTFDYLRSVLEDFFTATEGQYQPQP

Beta secretase = Beta secretase (Homo sapiens, UniProt P56817); experiment: biochemical; details: read-out: Percentage inhibition (%)
Beta secretase, sequence (P56817 46-501): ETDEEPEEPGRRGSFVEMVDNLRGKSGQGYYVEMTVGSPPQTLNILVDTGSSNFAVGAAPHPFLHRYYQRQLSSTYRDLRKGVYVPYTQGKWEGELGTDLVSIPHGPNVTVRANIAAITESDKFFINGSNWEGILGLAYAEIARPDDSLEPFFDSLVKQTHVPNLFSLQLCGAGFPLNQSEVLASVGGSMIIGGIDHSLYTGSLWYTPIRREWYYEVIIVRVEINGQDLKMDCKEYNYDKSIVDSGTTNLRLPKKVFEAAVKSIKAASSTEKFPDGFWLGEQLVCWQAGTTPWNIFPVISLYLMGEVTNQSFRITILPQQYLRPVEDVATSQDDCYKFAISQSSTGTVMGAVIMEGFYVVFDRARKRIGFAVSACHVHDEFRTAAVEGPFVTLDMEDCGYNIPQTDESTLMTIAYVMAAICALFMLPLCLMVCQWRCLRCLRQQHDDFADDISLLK

Caspase-6 = biological target: T1, Caspase-6 (Homo sapiens, UniProt P55212); experiment: biochemical; details: read-out: Percentage inhibition (%)
T1 sequence (P55212 24-179 limits assumed): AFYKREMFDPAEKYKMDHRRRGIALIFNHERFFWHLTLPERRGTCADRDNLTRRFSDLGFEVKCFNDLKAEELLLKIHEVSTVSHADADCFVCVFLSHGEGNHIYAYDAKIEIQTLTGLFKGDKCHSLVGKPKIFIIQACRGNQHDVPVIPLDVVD
T1 sequence (P55212 194-293 limits assumed): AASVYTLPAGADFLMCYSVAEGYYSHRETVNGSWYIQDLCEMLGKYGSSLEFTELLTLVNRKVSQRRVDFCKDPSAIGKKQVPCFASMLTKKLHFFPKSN

Cathepsin L = Cathepsin L (Homo sapiens, UniProt P07711); experiment: biochemical; details: read-out: Percentage inhibition (%)
Cathepsin L, sequence (P07711 114-333, species assumed): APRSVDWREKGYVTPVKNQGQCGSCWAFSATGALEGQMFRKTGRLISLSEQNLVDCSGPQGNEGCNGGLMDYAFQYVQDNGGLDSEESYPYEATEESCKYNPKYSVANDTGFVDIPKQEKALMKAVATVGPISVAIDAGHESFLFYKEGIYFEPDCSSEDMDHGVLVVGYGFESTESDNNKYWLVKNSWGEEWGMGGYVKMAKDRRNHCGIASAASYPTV

A20 = biological target: T2, A20 (Homo sapiens, UniProt P21580); experiment: biochemical; details: read-out: Percentage inhibition (%)
T2 sequence (P21580 1-790): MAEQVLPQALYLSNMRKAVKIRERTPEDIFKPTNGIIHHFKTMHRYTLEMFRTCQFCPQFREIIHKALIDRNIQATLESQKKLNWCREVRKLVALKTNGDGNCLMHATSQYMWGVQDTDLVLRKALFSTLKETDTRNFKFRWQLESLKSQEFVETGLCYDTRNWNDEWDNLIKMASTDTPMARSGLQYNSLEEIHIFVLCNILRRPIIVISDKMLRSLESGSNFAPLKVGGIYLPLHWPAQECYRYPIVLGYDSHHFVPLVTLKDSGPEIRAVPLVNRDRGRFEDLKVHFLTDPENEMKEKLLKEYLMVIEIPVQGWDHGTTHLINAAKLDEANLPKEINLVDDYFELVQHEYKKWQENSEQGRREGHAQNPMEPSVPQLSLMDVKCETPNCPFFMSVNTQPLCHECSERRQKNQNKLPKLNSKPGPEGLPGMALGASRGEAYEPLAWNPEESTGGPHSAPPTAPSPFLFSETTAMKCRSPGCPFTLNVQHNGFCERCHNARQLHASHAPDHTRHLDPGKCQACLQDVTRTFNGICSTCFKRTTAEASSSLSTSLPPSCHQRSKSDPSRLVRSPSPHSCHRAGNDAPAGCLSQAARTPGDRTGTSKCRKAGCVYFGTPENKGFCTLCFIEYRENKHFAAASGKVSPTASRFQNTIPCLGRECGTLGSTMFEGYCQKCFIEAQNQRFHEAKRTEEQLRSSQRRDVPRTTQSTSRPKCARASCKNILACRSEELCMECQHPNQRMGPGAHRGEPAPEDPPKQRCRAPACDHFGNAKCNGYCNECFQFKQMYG

[4] = biological target: Ubiquitin carboxyl-terminal hydrolase 14 (Homo sapiens, UniProt P54578); experiment: biochemical; details: read-out: Percentage inhibition (%)
Ubiquitin carboxyl-terminal hydrolase 14, sequence (P54578 whole entry): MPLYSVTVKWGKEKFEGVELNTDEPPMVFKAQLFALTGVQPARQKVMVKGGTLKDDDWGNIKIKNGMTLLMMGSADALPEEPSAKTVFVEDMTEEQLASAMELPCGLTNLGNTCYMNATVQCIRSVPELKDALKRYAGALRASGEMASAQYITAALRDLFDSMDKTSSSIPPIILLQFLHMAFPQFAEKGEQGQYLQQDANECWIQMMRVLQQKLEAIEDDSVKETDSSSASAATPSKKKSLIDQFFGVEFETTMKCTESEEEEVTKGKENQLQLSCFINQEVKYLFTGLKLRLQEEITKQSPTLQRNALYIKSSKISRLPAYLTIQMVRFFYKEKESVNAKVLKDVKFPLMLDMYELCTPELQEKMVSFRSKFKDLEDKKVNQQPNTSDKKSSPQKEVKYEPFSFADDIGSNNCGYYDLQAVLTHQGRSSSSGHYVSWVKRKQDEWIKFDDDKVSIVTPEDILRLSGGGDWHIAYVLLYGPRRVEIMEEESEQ

DPP7 = DPP7 (Homo sapiens, UniProt Q9UHL4); experiment: biochemical; details: read-out: Percentage inhibition (%)
DPP9 = DPP9 (Homo sapiens, UniProt Q86TI2); experiment: biochemical; details: read-out: Percentage inhibition (%)
DPP9, sequence (Q86TI2 whole entry, species assumed): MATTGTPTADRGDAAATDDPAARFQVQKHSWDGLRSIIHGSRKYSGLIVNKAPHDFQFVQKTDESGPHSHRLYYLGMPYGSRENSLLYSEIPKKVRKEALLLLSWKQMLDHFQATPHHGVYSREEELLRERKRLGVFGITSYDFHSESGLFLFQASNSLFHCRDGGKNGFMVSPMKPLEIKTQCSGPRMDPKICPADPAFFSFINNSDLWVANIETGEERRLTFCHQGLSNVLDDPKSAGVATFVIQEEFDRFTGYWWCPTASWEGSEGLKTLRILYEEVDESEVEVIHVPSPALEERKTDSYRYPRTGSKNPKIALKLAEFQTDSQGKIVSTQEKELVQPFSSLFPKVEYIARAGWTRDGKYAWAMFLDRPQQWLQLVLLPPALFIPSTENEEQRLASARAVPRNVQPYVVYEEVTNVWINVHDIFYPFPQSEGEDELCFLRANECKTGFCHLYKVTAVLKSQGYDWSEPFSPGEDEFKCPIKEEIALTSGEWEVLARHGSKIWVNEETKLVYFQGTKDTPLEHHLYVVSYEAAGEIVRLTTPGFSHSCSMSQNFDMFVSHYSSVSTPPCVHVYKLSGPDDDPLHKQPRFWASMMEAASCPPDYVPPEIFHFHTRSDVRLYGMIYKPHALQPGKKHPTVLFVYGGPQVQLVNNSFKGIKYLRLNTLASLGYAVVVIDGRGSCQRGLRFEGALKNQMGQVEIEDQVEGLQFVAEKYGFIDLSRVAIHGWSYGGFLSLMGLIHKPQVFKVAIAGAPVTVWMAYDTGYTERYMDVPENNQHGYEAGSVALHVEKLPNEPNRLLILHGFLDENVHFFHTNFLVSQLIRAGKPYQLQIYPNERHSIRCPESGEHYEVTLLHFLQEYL

Renin = biological target: T3, Renin (Homo sapiens, UniProt P00797); experiment: biochemical; details: read-out: Percentage inhibition (%)
T3 sequence (P00797 67-406): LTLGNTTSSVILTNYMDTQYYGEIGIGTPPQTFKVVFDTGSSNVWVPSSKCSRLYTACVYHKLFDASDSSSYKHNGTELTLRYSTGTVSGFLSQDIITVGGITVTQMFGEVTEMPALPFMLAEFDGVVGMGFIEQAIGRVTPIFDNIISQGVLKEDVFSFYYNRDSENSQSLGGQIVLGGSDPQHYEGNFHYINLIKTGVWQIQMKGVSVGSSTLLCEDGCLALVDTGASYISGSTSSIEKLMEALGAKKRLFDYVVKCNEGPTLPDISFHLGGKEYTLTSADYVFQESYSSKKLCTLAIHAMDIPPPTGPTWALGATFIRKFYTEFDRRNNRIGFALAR

SMILES | % Inhibition of Specific Binding (BZD (central)) [%] | % Inhibition of Specific Binding [1] [%] | Percentage inhibition (%) ([2]; 1 μM) | Percentage inhibition (%) ([2]; 10 μM) | Percentage inhibition (%) ([3]; 1 μM) | Percentage inhibition (%) ([3]; 10 μM) | inhibition at 10 µM (beta 1 (h)) [%] | inhibition at 10 µM (D2S (h)) [%] | inhibition at 10 µM (M2 (h)) [%] | inhibition at 10 µM (delta (DOP) (h)) [%] | inhibition at 10 µM (mu (MOP) (h)) [%] | inhibition at 10 µM (5-HT transporter (h)) [%] | inhibition at 10 µM (Lck kinase (h)) [%] | inhibition at 1 µM (Beta secretase) [%] | inhibition at 10 µM (Beta secretase) [%] | inhibition at 1 µM (Caspase-6) [%] | inhibition at 10 µM (Caspase-6) [%] | inhibition at 1 µM (Cathepsin L) [%] | inhibition at 10 µM (Cathepsin L) [%] | inhibition at 1 µM (A20) [%] | also measured
CCCCCC(=O)N[C@H]1CSCc2cc(cc(CN3CCN(C(=O)CN4CCN(CC(=O)O)CCN(CC(=O)O)CCN(CC(=O)O)CC4)CC3)c2)CSC[C@@H](C(=O)N[C@@H](CC(=O)O)C(N)=O)NC(=O)[C@H](Cc2ccccc2)NC(=O)[C@H](CCC(N)=O)NC(=O)[C@H]([C@@H](C)O)NC(=O)[C@@H]2CCCN2C(=O)[C@@H]2CCCN2C1=O [Compound 3BP-3407, Hex-[Cys(tMeBn(DOTA-PP))-Pro-Pro-Thr-Gln-Phe-Cys]-Asp-NH2] (Hexanoyl-CPPTQFCD-NH2; linker 1-7 via X1) | −9 | 42 | 1 | 5 | 0 | 2 | 4 | 15 | -4 | 0 | 2 | -3 | 10 | -8 | -5 | 1 | -1 | 3 | 6 | 2 | inhibition at 10 µM (A20): -4%; inhibition at 1 µM [4]: -1%; inhibition at 10 µM [4]: 5%; inhibition at 1 µM (DPP7): 2%; inhibition at 10 µM (DPP7): -3%; inhibition at 1 µM (DPP9): -1%; inhibition at 10 µM (DPP9): 0%; inhibition at 1 µM (Renin): -1%; inhibition at 10 µM (Renin): 3%
CCCCCC(=O)N[C@H]1CSCc2cc(CSCCNC(=O)CN3CCN(CC(=O)O)CCN(CC(=O)O)CCN(CC(=O)O)CC3)cc(c2)CSC[C@@H](C(=O)O)NC(=O)[C@H](Cc2ccccc2)NC(=O)[C@H](CCC(N)=O)NC(=O)[C@H]([C@@H](C)O)NC(=O)[C@@H]2CCCN2C(=O)[C@@H]2CCCN2C1=O [Compound 3BP-3554, Hex-[Cys(tMeBn(DOTA-AET))-Pro-Pro-Thr-Gln-Phe-Cys]-OH] | 5 | 54 | −5 | −9 | 0 | −5 | -13 | -7 | 7 | 1 | -10 | -8 | -4 | 1 | 7 | 6 | -3 | 0 | -6 | 1 | inhibition at 10 µM (A20): 0%; inhibition at 1 µM [4]: 1%; inhibition at 10 µM [4]: 2%; inhibition at 1 µM (DPP7): -1%; inhibition at 10 µM (DPP7): -7%; inhibition at 1 µM (DPP9): -1%; inhibition at 10 µM (DPP9): -5%; inhibition at 1 µM (Renin): 0%; inhibition at 10 µM (Renin): -1%
